Test results: patent US10959966B2, “Compositions and methods for modulating HEXM1 expression” (CASE WESTERN RESERVE UNIVERSITY, priority 2014, dated 2021)

Experiments:
[1] = tested on: p21 expression in prostate cancer LNCaP cells; assay: p21 expression by western blot, LNCaP cells; format: cell-based; conditions: 5 mM HMBA or 50 μM 4a1, 18 hours
Procedure: (§1) FIGS. 7(A-B) illustrate Western blots showing (A) MCF7 (control siRNA or HEXIM1 siRNA) and (B) LNCaP (control shRNA or HEXIM1 shRNA) cells treated with vehicle (DMSO), 5 mM HMBA, or 50 μM 4a1 for 18 hours.
(§2) Cell lysates were analyzed by western blot as previously described. Anti-HEXIM1 was generated in the Montano laboratory. Primary antibodies against p21 (C-19; cat# sc-397), cyclin D1 (HD11; cat# sc-246) and myc (9E10; cat# sc-40) were obtained from Santa Cruz Biotechnology. Anti-GAPDH was obtained from Millipore. Anti-HIF-1α was obtained from Oxy-cell, Bioresearch).
(§3) HMBA was investigated in a Phase II clinical trial due to its potent anti-cancer and cell differentiation activities. Moreover, the roles of HMBA, and potentially 4a1, as differentiating factors are advantageous for their therapeutic use when compared to cytotoxic agents. […] We also examined the ability of 4a1 to induce differentiation and the relative role of HEXIM1.

[2] = tested on: tamoxifen resistant breast cancer line (MCF7/TOTR); assay: MTT proliferation assay, sensitivity to trans-hydroxytamoxifen; format: cell-based; conditions: 7 days, 5 mM HMBA or 50 μM 4a1
Procedure: (§4) FIGS. 9(A-B) illustrate a Western blot and plots showing HEXIM1 expression in MCF7 and MCF7(TOTR) cells in the presence of vehicle (DMSO), 5 mM HMBA or 50 μM 4a1.
(§5) MCF7, MDA-MB-231, and LNCaP cells were obtained from the American Tissue Culture Collection, and were maintained as previously described. Construction of expression vectors for control miRNA or HEXIM1 miRNAs were described previously. MCF7 or LNCaP cells were transfected with expression vectors containing either the HEXIM1 miRNA insert or a control miRNA insert as previously described. Following blasticidin selection, cells expressing the highest level of GFP were flow-sorted and expanded. […]
MCF7 cells were plated onto 96 well plates and treated with 17β-estradiol±trans-hydroxytamoxifen in the presence of DMSO (vehicle), HMBA or 4a1 for 7 days. Cell proliferation was assessed using the MTT based Cell Growth Determination Kit from Sigma-Aldrich according to the manufacturer's protocol.
(§6) We have reported that HEXIM1 is required for the ability of antiestrogens to inhibit the activity of the Estrogen Receptor, that loss of HEXIM1 results in agonistic activity of tamoxifen, and that recurrence after tamoxifen therapy can be correlated with loss of HEXIM1 expression in human breast tissue samples. Thus we determined if HMBA and 4a1 can enhance sensitivity to tamoxifen of a tamoxifen resistant breast cancer line (MCF7/TOTR). […]

[3] = tested on: p21 expression in breast cancer MCF7 cells; assay: p21 expression by western blot, MCF7 cells; format: cell-based; conditions: 5 mM HMBA or 50 μM 4a1, 18 hours
Procedure: as §1, §2, §3

HEXIM1 = conditions: in vitro cell cultures; cited from earlier work
[4] = tested on: recruitment of CDK9 to HEXIM1 gene in LNCaP cells; assay: ChIP assay, CDK9 recruitment to HEXIM1 gene, LNCaP cells; format: cell-based; conditions: 5 mM HMBA or 50 μM 4a1, 90 minutes
Procedure: (§7) FIGS. 6(A-B) illustrate graphs showing HEXIM1 graphs showing HMBA and 4a1 induced recruitment of CDK9 to HEXIM1 promoter in MCF7 and LNCaP cells treated with 5 mM HMBA or 50 μM 4a1 for 90 minutes.
(§8) ChIP assays were carried out as previously described. Anti-CDK9 antibody (D-7; cat# sc-13130) was obtained from Santa Cruz Biotechnology.
(§9) The induction of HEXIM1 by HMBA appears to involve the release of free P-TEFb from 7SK snRNP, and recruitment of P-TEFb to HEXIM1 gene. P-TEFb is a heterodimer between the cyclin-dependent kinase 9 (Cdk9) and its regulatory subunit Cyclin T1 (CycT1). We thus determined the regulation of the recruitment of CDK9 to the HEXIM1 coding sequence by HMBA and 4a1.

[5] = tested on: triple negative MDA-MB-231 breast cancer cells; assay: Nile red staining of lipid droplets (differentiation marker), MDA-MB-231 cells; format: cell-based; conditions: 72 hours
Procedure: (§10) FIGS. 8(A-B) illustrate images showing (A) MCF7 cells transfected with control or HEXIM1 siRNA or (B) MDA-MB-231 transfected with control or HEXIM1 expression vector treated with vehicle (DMSO), HMBA, or 4a1 for 72 hours. Lower panels show Western blot analyses of HEXIM1 expression in MDA-MB-231 cells transfected with control or expression vector for Flag-tagged HEXIM1.
(§11) Cells were stained with Nile red for lipid droplets (marker of cell differentiation). Briefly, the stock solution of Nile red 1 mg/ml in acetone was diluted in PBS (1:1000). The fixed cells (4% paraformaldehyde) were incubated with diluted Nile red for 5 minutes at room temperature, rinsed with PBS and observed for the presence of lipid droplets by confocal microscopy. Images were digitally captured using a Leica microscope (Leica Microsystems Inc, IL, USA).

[6] = tested on: HEXIM1 targets in MCF7 cells; assay: Western blot of HEXIM1 targets in MCF7 cells; format: cell-based; conditions: 5 mM HMBA or 50 uM 4a1, 18 h, relative to GAPDH
Procedure: FIG. 10 illustrates a Western blot of MCF7 cells treated with vehicle, 5 mM HMBA, or 50 uM 4a1 for 18 h, and processes for analyses of HEXIM1 targets relative to GAPDH.
as §2
To assess the clinical potential of HMBA and 4a1 we need to determine to what extent the targets of HMBA and 4a1 overlap with that of HEXIM1. We focused on direct targets of HEXIM1 that we have identified.

[7] = tested on: recruitment of CDK9 to HEXIM1 gene in MCF7 cells; assay: ChIP assay, CDK9 recruitment to HEXIM1 gene, MCF7 cells; format: cell-based; conditions: 5 mM HMBA or 50 μM 4a1, 90 minutes
Procedure: as §7, §8, §9

[8] = cited from earlier work
[9] = administered in vivo; cited from earlier work
MCF7 cells = assay: Nile red staining of lipid droplets (differentiation marker), MCF7 cells; format: cell-based; conditions: 72 hours
Procedure: as §10, §11

[10] = tested on: HEXIM1 expression in MCF7/TOTR cells; assay: HEXIM1 expression in tamoxifen resistant MCF7/TOTR cells; format: cell-based; conditions: 5 mM HMBA or 50 μM 4a1
Procedure: as §4
as §5, with “expanded. MDA-MB-231 cells were transfected with control or expression vector for Flag-tagged HEXIM1 as previously described.” for “expanded.”
Cell lysates were analyzed by western blot as previously described. […]
as §6

[11] = in vivo; cited from earlier work

## CC(=O)NCCCCCCNC(C)=O [HMBA, Hexamethylene bis-acetamide, reference compound]
[1]
  p21 expression: induction of p21 expression
[2]
  Sensitivity of TOTR cells to trans-hydroxytamoxifen: enhanced the sensitivity
[3]
  p21 expression: induced p21 expression
HEXIM1
  Concentrations at which HMBA induces HEXIM1: one to five
[4]
  Recruitment of CDK9 to HEXIM1 gene: induce recruitment of CDK9
[5]
  Cell differentiation (lipid droplets, Nile red): induced differentiation
[6]
  Expression of proteins directly regulated by HEXIM1: regulated expression of proteins
[7]
  Recruitment of CDK9 to HEXIM1 gene: induce recruitment of CDK9
[8]
  Water solubility: water soluble
[9]
  Half-life: short half-life
  Tissue distribution: poor tissue distribution
MCF7 cells
  Cell differentiation (lipid droplets, Nile red): induced differentiation
[10]
  HEXIM1 expression: induced HEXIM1 expression
[11]
  Toxicity in Phase II clinical trial: dose-dependent toxicity
